Experimental data reported in US20080057534A1, “Microbe-sensitive indicators and use of the same” (Kimberly-Clark Worldwide, Inc., priority 2006, published 2008).

What was measured:
microbe contamination = assay: Microbe-insensitivity of signal graphic colorants
aged chicken juice = assay: Dye spots on woven cotton fabric, aged chicken juice
Text: A transparent film covering half of a fresh chicken on a polystyrene tray (from supermarket) was stored at room temperature for three weeks. The pale yellow juices that collected in the polystyrene tray were collected using a pipette and used for tests.
A 47-mg quantity of 1-docosyl-4-(4-hydroxystyryl)-pyridinium bromide (from Aldrich Chemical) was mixed with 10 g dimethylformamide. A small amount of solids remained after shaking and settling. The orange supernatant fluid was dropped onto woven cotton fabric of basis weight (29.2 cm×20.3 cm=6.888 g) to make orange-yellow colored circles. One drop of 1N sodium hydroxide solution was added to one orange-yellow spot on the cotton fabric, changing the color from orange-yellow to a pinkish orange.
The color change was rapid on cotton.

E. coli bacteria = assay: Reichardt's dye/TMB coated towel, E. coli suspension drop-wise; conditions: coating of Reichardt's dye and TMB on SCOTT paper towel
Text: Additionally, a SCOTT® paper towel having a coating of Reichardt's dye and TMB chemistries was exposed to suspension of E. coli bacteria drop-wise. The towel area that came in contact with the bacteria decolorized to a white spot in less than 10 seconds.

[1] = Reichardt's dye/TMB coated towel, dilute bleach solution; type: physicochemical; conditions: mixture of Reichardt's dye and TMB on SCOTT paper towel
Text: A mixture of Reichardt's dye and 3,3′,5,5′-tetramethylbenzidine (TMB) was coated onto a SCOTT® paper towel and allowed to air-dry.

S. aureus [2] = assay: Reichardt's dye coated self-adhesive stickers, transfer of bacteria by gloved hand; conditions: 160 mg/10 mL and 80 mg/10 mL acetonitrile coatings; 10^7 CFU/mL S. aureus
Method: A sheet of paper self-adhesive stickers (Avery-Dennison) was also brush-coated with two different concentrations of Reichardt's dye solution (160 mg/10 mL acetonitrile, 80 mg/10 mL acetonitrile). The stickers were applied to the lid and latch mechanism of a Huggies® Wet Wipes box. A gloved hand was used to transfer 10^7 CFU/mL S. aureus to the surface of the stickers.

[3] = De-colorization by acid (model of microbial contamination) and reversal by strong base; type: physicochemical
Method: A CCI Multigloss yellow base pigment (available from Color Converting, Inc. of Hazleton, Pa.) was applied to a white SMS (spunbond/meltblown/spunbond) nonwoven material (available from Kimberly-Clark Corporation of Irving, Tex.) using a standard hand roller. The treated nonwoven was oven-dried at 100° C. for approximately five minutes. A solution of Reichardt's dye was prepared by mixing about 200 mg of Reichardt's dye (obtained from Sigma-Aldrich of St. Louis, Mo.) with approximately 5 g of octanol (obtained from Sigma-Aldrich). This solution was then applied in the shape of a “t” to the dried yellow pigment on the nonwoven material using a clean hand roller. A control material was prepared by applying the Reichardt's dye/octanol mixture in the “t” pattern to a sheet of untreated white SMS nonwoven material. The samples were again oven-dried at 100° C. for approximately five minutes. In previous studies, it has been discovered that strong acids can also cause de-colorization of the dye in a manner that is representative of microbial contamination. Thus, strong acids are sometimes used to model the reaction of a microbe for initial experiments. A drop of pH 2 Aldrich buffer was applied to both the control and test substrates in three places and allowed to react for three minutes. […] An observation was made that the yellow color became even more visible as time passed (presumably due to the complete de-colorization of all dye molecules in the area of the drop as the acid dried).
This experiment illustrated the ability of a strong base to reverse decolorization of Reichardt's dye. Several drops of Reichardt's dye (160 mg in 10 ml of acetonitrile) were pipetted onto a SCOTT® towel and allowed to dry. […] The blue/purple color of Reichardt's dye returned after the 1 N NaOH was added.

E. coli (ATCC #8739) = assay: Reichardt's dye coated paper, response to bacterial contamination; conditions: paper brush-coated with 80 mg/10 mL acetonitrile; 100 μL aliquots of 10^7 to 10^4 CFU/mL
Method: (§1) This experiment illustrated the ability of a surface coating of Reichardt's dye to respond to bacterial contamination. A sheet of paper was brush-coated with a Reichardt's dye solution (80 mg/10 mL acetonitrile). To this paper was added 100 μL aliquots of 10^7, 10^6, 10^5, and 10^4CFU/mL E. coli (ATCC #8739) or S. aureus (ATCC #6538) solutions. Water was used as a negative control. The dye color was rapidly discharged when contaminated by both types of bacteria, but more rapidly for the S. aureus. It was later determined that while both bacteria solutions were indeed at 10^7 CFU/mL concentrations, the actual concentration of the S. aureus solution was 7×10^7 CFU/mL compared to 1×10^7 CFU/mL for the E. coli solution.

S. aureus (ATCC #6538) = assay: as above; conditions: paper brush-coated with 80 mg/10 mL acetonitrile; 100 μL aliquots of 10^7 to 10^4 CFU/mL
Method: as §1

S. aureus [4] = assay: Reichardt's dye coatings from different solvents on towels, S. aureus aliquots; conditions: for color change of coating: 100 μl S. aureus
Method: The behavior of Reichardt's dye coatings made using various different solvents was evaluated. Solutions of Reichardt's dye in acetonitrile, isopropanol, and xylenes were prepared and the solutions were used to coat SCOTT® kitchen rolls towels and allowed to air-dry.

[5] = test system: aged chicken juice known to have a high bacterial count; assay: Dye coating on ceramic surface with and without TWEEN 80, drop of aged chicken juice; conditions: 80 mg/10 mL acetonitrile with TWEEN 80 (200 μL)
Method: A solution of Reichardt's dye (80 mg/10 mL acetonitrile) and TWEEN® 80 (200 μL) polyoxyethylene surfactant (from Fischer Scientific, Pittsburgh, Pa.) was prepared. This solution was then used to coat a ceramic surface and allowed to air dry. A second solution of Reichardt's dye (80 mg/10 mL acetonitrile) without surfactant was placed on the surface and allowed to air dry as well. After drying, a drop of aged chicken juice known to have a high bacterial count was placed on each coating area. […] Furthermore, the addition of TWEEN® surfactant allowed for easy removal of the dye from the surface.

[6] = test system: bacteria and other microbes in aged urine; assay: Merocyanine dye coated paper towel, aged female human urine
Method: Female human urine was collected and stored in a glass jar at room temperature for 8 days. N-methyl merocyanine dye of the structure below was synthesized as described above. A 0.5-g quantity of the dye was dissolved in 20 ml deionized water and coated onto a SCOTT® kitchen roll paper towel by dipping the towel into the solution, allowing the excess to drip off, and then allowing the coated toweling to dry at ambient conditions. The paper towel was stained a deep orange color by the dye.
As a control, the aged urine was filtered through a 0.2 micron filter to remove bacteria and other microbes.
Female human urine was collected and stored for 24 hours at 37° C. Pooled female urine may be expected to have a bacterial loading of approximately 1×10^5 CFU/ml after storage under these conditions. A 0.5-g quantity of N-methyl merocyanine dye, synthesized as described above, was dissolved in 20 ml deionized water and coated onto a SCOTT® kitchen roll paper towel by dipping the towel into the solution, allowing the excess to drip off, and then allowing the coated toweling to dry at ambient conditions. The paper towel was stained a deep orange color by the dye.

[7] = test system: budgie feces suspension in tap water; assay: Merocyanine dye coated paper towel, budgerigar feces suspension; conditions: coated SCOTT towel, drops of suspension
Method: Budgerigar feces was collected from a caged pet budgie, and shaken in approximately 10 ml of Atlanta city domestic tap water. A 0.5-g quantity of N-methyl merocyanine dye, synthesized as described above, was dissolved in 20 ml deionized water and coated onto a SCOTT® kitchen roll paper towel by dipping the towel into the solution, allowing the excess to drip off, and then allowing the coated toweling to dry at ambient conditions. The paper towel was stained a deep orange color by the dye. […] As a control, Atlanta city domestic tap water was dropped onto a different area of the towel and while the color was diluted somewhat by the water, the area remained orange.

Cc1ccc(Nc2ccc(Nc3ccc(C)cc3S(=O)(=O)[O-])c3c2C(=O)c2ccccc2C3=O)c(S(=O)(=O)[O-])c1.[Na+].[Na+] [Acid Green 25]
sensitivity to microbes (microbe contamination): fairly microbe-insensitive

CCCCCCCCCCCCCCCCCCCCCC[n+]1ccc(C=Cc2ccc(O)cc2)cc1.[Br-] [1-docosyl-4-(4-hydroxystyryl)-pyridinium bromide]
color change (aged chicken juice; orange-yellow spots on cotton fabric): color change to very pale yellow
color change (aged chicken juice; pinkish-orange areas (dye + NaOH soln.) on cotton): color change from pinkish-orange to very pale yellow

Cc1cc(-c2cc(C)c(N)c(C)c2)cc(C)c1N [TMB, 3,3′,5,5′-tetramethylbenzidine]
bleach indicator color development on bacteria (E. coli bacteria): No orange/yellow color was observed to develop
color response to bleach [1]: turning orange/yellow color

[O-]c1c(-c2ccccc2)cc(-[n+]2c(-c3ccccc3)cc(-c3ccccc3)cc2-c2ccccc2)cc1-c1ccccc1 [Reichardt's dye, 4-(2,4,6-triphenylpyridinium-1-yl)-2,6-diphenylphenolate]
time to decolorize to a white spot (E. coli bacteria): less than 10 seconds
color discharge of coated stickers (S. aureus [2]): rapidly de-colorized
color change on acid ([3]; 160 mg in 10 ml acetonitrile on SCOTT towel, acetic acid and Aldrich buffer pH 2.0): rapid de-colorization
reversal of decolorization by base ([3]; drop of 1 N NaOH on acid-decolorized spots): rapid re-colorization
de-colorization revealing underlying pigment ([3]; drop of pH 2 Aldrich buffer on SMS nonwoven over yellow pigment, three minutes): underlying yellow color was clearly visible
color response to bleach [1]: de-colorizing
time of de-colorization (E. coli (ATCC #8739)): < 1 min
time of de-colorization (S. aureus (ATCC #6538)): < 1 min
color change of coating (S. aureus [4]; acetonitrile solution-based coating): rapid de-colorization
decolorization in response to microbial contamination (S. aureus [4]; isopropanol as solvent, dye concentration adjusted): readily and easily observed
color change of coating (S. aureus [4]; isopropanol solution-based coating): No visible color change
color change of coating (S. aureus [4]; xylenes solution-based coating): No visible color change
de-colorization faster than area without TWEEN surfactant [5]: 20 to 30 s

COc1cc(/C=C/c2cc[n+](C)cc2)ccc1[O-] [N-methyl merocyanine dye]
color change ([6]; urine stored 24 hours at 37° C., approx. 1×10^5 CFU/ml expected): immediate color change from deep orange to pale yellow
color change ([6]; urine stored 24 hours at 37° C., filtered through 0.2 micron filter (control)): did not cause a color change
color change ([6]; urine stored 8 days, filtered through 0.2 micron filter (control)): did not cause a color change
color change ([6]; urine stored at room temperature for 8 days): immediate color change from deep orange to pale yellow
color change [7]: immediate color change from deep orange to pale yellow
